Reference: patent US10336761B2, “TGFβ receptor antagonist” (BRISTOL-MYERS SQUIBB COMPANY, priority 2015, dated 2019)

Target: HIS-TGFβR1 T204D (Homo sapiens (Human), UniProt P36897, T204D)
Assay: HTRF probe-displacement assay, HIS-TGFβR1 T204D
Format: binding
Settings: 1 hour at room temperature

Sequence of HIS-TGFβR1 T204D (P36897 34-503 T204D): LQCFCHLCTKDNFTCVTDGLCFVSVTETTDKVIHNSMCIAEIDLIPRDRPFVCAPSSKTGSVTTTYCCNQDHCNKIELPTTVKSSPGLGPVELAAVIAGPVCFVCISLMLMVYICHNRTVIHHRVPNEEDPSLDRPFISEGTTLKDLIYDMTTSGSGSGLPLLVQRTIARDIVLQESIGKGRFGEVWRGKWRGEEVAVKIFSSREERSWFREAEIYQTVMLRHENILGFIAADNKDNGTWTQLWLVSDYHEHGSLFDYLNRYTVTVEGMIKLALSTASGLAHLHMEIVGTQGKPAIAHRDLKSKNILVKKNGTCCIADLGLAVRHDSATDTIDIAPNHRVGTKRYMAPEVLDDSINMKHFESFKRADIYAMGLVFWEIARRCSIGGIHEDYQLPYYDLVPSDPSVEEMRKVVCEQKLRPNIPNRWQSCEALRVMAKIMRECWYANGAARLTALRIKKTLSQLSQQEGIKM

IC50	Structure (SMILES)
1.8 nM	COCCC(=O)Nc1cc(Nc2nc(-c3cccc(C(F)(F)F)n3)nn3cccc23)ccn1 [Example 343, 3-methoxy-N-[4-({2-[6-(trifluoromethyl)pyridin-2-yl]pyrrolo[2,1-f][1,2,4]triazin-4-yl}amino)pyridin-2-yl]propanamide]
5.7 nM	CN1CCN(Cc2ccn3nc(-c4cccc(C(F)F)n4)nc(Nc4ccncc4F)c23)CC1 [Example 115, N-{2-[6-(difluoromethyl)pyridin-2-yl]-5-[(4-methylpiperazin-1-yl)methyl]pyrrolo[2,1-f][1,2,4]triazin-4-yl}-3-fluoropyridin-4-amine]
4.2 nM	Fc1cnccc1Nc1nc(-c2ccccn2)nn2ccc(CNCCN3CCNCC3)c12 [Example 269, 3-fluoro-N-[5-({[2-(piperazin-1-yl)ethyl]amino}methyl)-2-(pyridin-2-yl)pyrrolo[2,1-f][1,2,4]triazin-4-yl]pyridin-4-amine]
0.85 nM	CC(=O)Nc1cc(Nc2nc(-c3ccccn3)nn3ccc(CNCC(C)(C)O)c23)ccn1 [Example 117, N-{4-[(5-{[(2-hydroxy-2-methylpropyl)amino]methyl}-2-(pyridin-2-yl)pyrrolo[2,1-f][1,2,4]triazin-4-yl)amino]pyridin-2-yl}acetamide]
2.3 nM	OCCN1CCN(Cc2ccn3nc(-c4ccccn4)nc(Nc4ccncc4F)c23)CC1 [Example 231, 2-[4-({4-[(3-fluoropyridin-4-yl)amino]-2-(pyridin-2-yl)pyrrolo[2,1-f][1,2,4]triazin-5-yl}methyl)piperazin-1-yl]ethan-1-ol]
0.39 nM	Fc1cccc(-c2nc(Nc3ccncc3Cl)c3cccn3n2)n1 [Example 70, 3-chloro-N-[2-(6-fluoropyridin-2-yl)pyrrolo[2,1-f][1,2,4]triazin-4-yl]pyridin-4-amine]
13 nM	CN1CCC(OCc2ccn3nc(-c4ccccn4)nc(Nc4ccncc4F)c23)CC1 [Example 328, 3-fluoro-N-(5-{[(1-methylpiperidin-4-yl)oxy]methyl}-2-(pyridin-2-yl)pyrrolo[2,1-f][1,2,4]triazin-4-yl)pyridin-4-amine]
0.6 nM	CC(C)(O)CNCC(=O)Nc1cc(Nc2nc(-c3cccc(C(F)(F)F)n3)nn3cccc23)ccn1 [Example 330, 2-[(2-hydroxy-2-methylpropyl)amino]-N-[4-({2-[6-(trifluoromethyl)pyridin-2-yl]pyrrolo[2,1-f][1,2,4]triazin-4-yl}amino)pyridin-2-yl]acetamide]
88 nM	COc1cccc(-c2nc(Nc3ccnc(NCCCN(C)C)c3)c3cccn3n2)n1 [Example 135, 2-N-[3-(dimethylamino)propyl]-4-N-[2-(6-methoxypyridin-2-yl)pyrrolo[2,1-f][1,2,4]triazin-4-yl]pyridine-2,4-diamine]
3 nM	Cc1cccc(-c2nc(Nc3ccncc3C(=O)NCCCN3CCS(=O)(=O)CC3)c3cccn3n2)n1 [Example 36, N-(3-(1,1-dioxidothiomorpholino)propyl)-4-((2-(6-methylpyridin-2-yl)pyrrolo[2,1-f][1,2,4]triazin-4-yl)amino)nicotinamide]
16 nM	CC(=O)Nc1cc(Nc2nc(-c3ccc(F)cn3)nn3cccc23)c(F)cn1 [Example 323, N-(5-fluoro-4-{[2-(5-fluoropyridin-2-yl)pyrrolo[2,1-f][1,2,4]triazin-4-yl]amino}pyridin-2-yl)acetamide]

Second part, the compound before the results:

Structure (SMILES)	IC50
CC(=O)Nc1cc(Nc2nc(-c3cccc(C(F)F)n3)nn3cccc23)ccn1 [Example 13, N-[4-({2-[6-(difluoromethyl)pyridin-2-yl]pyrrolo[2,1-f][1,2,4]triazin-4-yl}amino)pyridin-2-yl]acetamide]	0.19 nM
COc1cccc(-c2nc(Nc3ccnc(NCCN4CCOCC4)c3)c3cccn3n2)n1 [Example 139, 4-N-[2-(6-methoxypyridin-2-yl)pyrrolo[2,1-f][1,2,4]triazin-4-yl]-2-N-[2-(morpholin-4-yl)ethyl]pyridine-2,4-diamine]	190 nM
Fc1cnccc1Nc1nc(-c2nc(C(F)(F)F)cs2)nn2cccc12 [Example 17, N-(3-fluoropyridin-4-yl)-2-(4-(trifluoromethyl)thiazol-2-yl)pyrrolo[2,1-f][1,2,4]triazin-4-amine]	0.72 nM
CC(C)NC(=O)c1cnccc1Nc1nc(-c2cccc(C(F)F)n2)nn2cccc12 [Example 194, 4-({2-[6-(difluoromethyl)pyridin-2-yl]pyrrolo[2,1-f][1,2,4]triazin-4-yl}amino)-N-(propan-2-yl)pyridine-3-carboxamide]	110 nM
Cc1csc(-c2nc(Nc3ccncc3)c3cccn3n2)n1 [Example 88, N-[2-(4-methyl-1,3-thiazol-2-yl)pyrrolo[2,1-f][1,2,4]triazin-4-yl]pyridin-4-amine]	1.5 nM
Fc1cnccc1Nc1nc(-c2ccnc(C(F)(F)F)n2)nn2cccc12 [Example 100, 3-fluoro-N-{2-[2-(trifluoromethyl)pyrimidin-4-yl]pyrrolo[2,1-f][1,2,4]triazin-4-yl}pyridin-4-amine]	15 nM
FC(F)(F)c1cccc(-c2nc(Nc3ccncn3)c3cccn3n2)n1 [Example 255, N-{2-[6-(trifluoromethyl)pyridin-2-yl]pyrrolo[2,1-f][1,2,4]triazin-4-yl}pyrimidin-4-amine]	28 nM
CC(C)(C)C(=O)Nc1cc(Nc2nc(-c3cccc(C(F)(F)F)n3)nn3cccc23)ccn1 [Example 342, 2,2-dimethyl-N-[4-({2-[6-(trifluoromethyl)pyridin-2-yl]pyrrolo[2,1-f][1,2,4]triazin-4-yl}amino)pyridin-2-yl]propanamide]	160 nM
Fc1cnccc1Nc1nc(-c2cccc(C(F)F)n2)nn2ccc(CN3CCC(F)(F)CC3)c12 [Example 23, N-{2-[6-(difluoromethyl)pyridin-2-yl]-5-[(4,4-difluoropiperidin-1-yl)methyl]pyrrolo[2,1-f][1,2,4]triazin-4-yl}-3-fluoropyridin-4-amine]	1.1 nM
Cc1cncc(-c2nc(Nc3ccncc3F)c3cccn3n2)n1 [Example 71, 3-fluoro-N-[2-(6-methylpyrazin-2-yl)pyrrolo[2,1-f][1,2,4]triazin-4-yl]pyridin-4-amine]	96 nM
CCC(=O)Nc1cc(Nc2nc(-c3cccc(C(F)(F)F)n3)nn3cccc23)ccn1 [Example 313, N-[4-({2-[6-(trifluoromethyl)pyridin-2-yl]pyrrolo[2,1-f][1,2,4]triazin-4-yl}amino)pyridin-2-yl]propanamide]	0.89 nM
COCc1noc(CNC(=O)c2cnccc2Nc2nc(-c3cccc(C(F)F)n3)nn3cccc23)n1 [Example 205, 4-({2-[6-(difluoromethyl)pyridin-2-yl]pyrrolo[2,1-f][1,2,4]triazin-4-yl}amino)-N-{[3-(methoxymethyl)-1,2,4-oxadiazol-5-yl]methyl}pyridine-3-carboxamide]	22 nM
COc1cccc(-c2nc(Nc3ccncc3)c3c(C)ccn3n2)n1 [Example 16, N-[2-(6-methoxypyridin-2-yl)-5-methylpyrrolo[2,1-f][1,2,4]triazin-4-yl]pyridin-4-amine]	9.4 nM
Cc1cccc(-c2nc(Nc3ccncc3C(=O)NC3COC3)c3cccn3n2)n1 [Example 165, 4-{[2-(6-methylpyridin-2-yl)pyrrolo[2,1-f][1,2,4]triazin-4-yl]amino}-N-(oxetan-3-yl)pyridine-3-carboxamide]	14 nM
CS(=O)(=O)Nc1cc(Nc2nc(-c3cccc(C(F)(F)F)n3)nn3cccc23)ccn1 [Example 318, N-[4-({2-[6-(trifluoromethyl)pyridin-2-yl]pyrrolo[2,1-f][1,2,4]triazin-4-yl}amino)pyridin-2-yl]methanesulfonamide]	4000 nM
COc1cccc(-c2nc(Nc3ccncc3NC(C)=O)c3cccn3n2)n1 [Example 47, N-(4-{[2-(6-methoxypyridin-2-yl)pyrrolo[2,1-f][1,2,4]triazin-4-yl]amino}pyridin-3-yl)acetamide]	180 nM
O=C(CN1CC[C@@H](O)C1)Nc1cc(Nc2nc(-c3cccc(C(F)(F)F)n3)nn3cccc23)ccn1 [Example 327, 2-[(3R)-3-hydroxypyrrolidin-1-yl]-N-[4-({2-[6-(trifluoromethyl)pyridin-2-yl]pyrrolo[2,1-f][1,2,4]triazin-4-yl}amino)pyridin-2-yl]acetamide]	0.3 nM
O=C(NCCCN1CCOCC1)c1cnccc1Nc1nc(-c2cccc(C(F)(F)F)n2)nn2cccc12 [Example 169, N-[3-(morpholin-4-yl)propyl]-4-({2-[6-(trifluoromethyl)pyridin-2-yl]pyrrolo[2,1-f][1,2,4]triazin-4-yl}amino)pyridine-3-carboxamide]	45 nM
Fc1cnccc1Nc1nc(-c2ccccn2)nn2ccc(CN[C@H]3CCN(Cc4ccccc4)C3)c12 [Example 285, N-[5-({[(3S)-1-benzylpyrrolidin-3-yl]amino}methyl)-2-(pyridin-2-yl)pyrrolo[2,1-f][1,2,4]triazin-4-yl]-3-fluoropyridin-4-amine]	1.2 nM
Fc1cnccc1Nc1nc(-c2cccc(C(F)(F)F)n2)nn2ccc(CN3CCC(F)(F)CC3)c12 [Example 123, N-{5-[(4,4-difluoropiperidin-1-yl)methyl]-2-[6-(trifluoromethyl)pyridin-2-yl]pyrrolo[2,1-f][1,2,4]triazin-4-yl}-3-fluoropyridin-4-amine]	13 nM
COc1cccc(-c2nc(Nc3ccncc3F)c3cc(NC(C)=O)cn3n2)n1 [Example 104, N-{4-[(3-fluoropyridin-4-yl)amino]-2-(6-methoxypyridin-2-yl)pyrrolo[2,1-f][1,2,4]triazin-6-yl}acetamide]	86 nM
COC(=O)Nc1cc(Nc2nc(-c3cccc(C(F)(F)F)n3)nn3cccc23)ccn1 [Example 312, Methyl N-[4-({2-[6-(trifluoromethyl)pyridin-2-yl]pyrrolo[2,1-f][1,2,4]triazin-4-yl}amino)pyridin-2-yl]carbamate]	0.87 nM
O=C(CN1CCNCC1)Nc1cc(Nc2nc(-c3cccc(C(F)(F)F)n3)nn3cccc23)ccn1 [Example 322, 2-(piperazin-1-yl)-N-[4-({2-[6-(trifluoromethyl)pyridin-2-yl]pyrrolo[2,1-f][1,2,4]triazin-4-yl}amino)pyridin-2-yl]acetamide]	1.3 nM
